Source: patent US20230285570A1, “THERAPEUTICALLY USEFUL CURE-PRO MOLECULES FOR E3 LIGASE MEDIATED DEGRADATION OF PROTEINS, AND METHODS OF MAKING AND USING THEM” (CORNELL UNIVERSITY, priority 2020, published 2023)
“Also recorded” adds a separate entry of the source.

Tests used:
Format in all cases: cell-based
BRD4 [1] = target: T1, BRD4 (Homo sapiens, UniProt O60885); assay: CURE-PRO-mediated BRD4 degradation in MCF7 cells, WES (ProteinSimple); set-up: endogenous in cells
Procedure: (§1) WES Simple analysis was performed on WES system (ProteinSimple-Biotechne) according to the manufacturer's instructions. Total protein concentrations of cell lysates were determined by the Pierce BCA kit (Thermo Fisher). 3 μL of 0.3 μg/μL of the protein lysate was loaded onto a 12- to 230-kDa WES assay plate (ProteinSimple) where 300 nL sample was withdrawn through a capillary, subjected to electrophoretic separation of proteins by size, and followed by the simultaneous, HRP-based detection of proteins using the Anti-Rabbit Detection Module (Proteinsimple: #DM-001). The electropherograms were checked then the automatic peak detection was manually corrected if it was required.
MCF7 cells (3×10^6) were treated for 4-24 hours continually (FIG. 72), or treated for 4 h, washed and incubated for a further 4-24 h with the compounds solubilized in DMSO. Compounds were added at 10 μM each. Cells were washed, lysed, and clarified by centrifugation. The total protein concentration was quantified by the BCA method (ThermoFisher Sciences). Standardized protein samples were electrophoresed and imaged as described in the WES Proteinsimple section above. FIG. 69 depicts the CURE-PRO-mediated BRD4 degradation for the BRD-E50 monomer, and VHL ligand, 8305.
MCF7 cells (3×10^6) were treated for 24 hours with the compounds solubilized in DMSO. CURE-PRO monomers were added at 10 μM each and the proteasomal inhibitors at 1 μM. Standardized protein samples were electrophoresed and imaged as described in the WES Proteinsimple section above. FIGS. 73 and 75 depicts the dependence of the proteasome for CURE-PRO-mediated BRD4 degradation.
MCF7 cells (3×10^6) were treated for 24 hours with the compounds solubilized in DMSO. CURE-PRO monomers were added at 10 μM. FIG. 74 depicts the CURE-PRO-mediated BRD4 degradation for the BRD-E50 monomer, and VHL ligand, 8305 combined in a 1:1 ratio after 24 h.

BRD4 [2] = target: T1, BRD4; assay: Summary of BRD4 degradation by CURE-PRO pairs, estimated from Western Blot or WES; set-up: endogenous in cells
Procedure, shortened: (§2)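 Namalwa, Ramos, HeLa, MCF7, HT29 or HCT116 cells treated 24 h with compounds in DMSO; RIPA lysates analysed by Western blot (ECL) or capillary WES immunodetection. Check mark denotes 30% to 70% or higher protein degradation.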

BRD4 [3] = target: T1, BRD4; assay: CURE-PRO-mediated BRD4 degradation in HeLa cells, WES capillary electrophoresis (ProteinSimple); set-up: endogenous in cells; host or cells: HeLa; conditions: co-dosed with CRBN ligand 8047, HeLa, 24 h, 100 nM-10 μM each
Procedure: All cell lines were purchased from ATCC or DSMZ and grown at 37° C. with 5% CO2. Human HeLa cells were cultured in complete growth medium (Dulbecco's modified Eagle's medium (DMEM) supplemented with 10% FBS); MCF7 cells were cultured in complete growth medium (Dulbecco's modified Eagle's medium (DMEM) supplemented with 10% FBS and 0.01 mg/ml human recombinant insulin (Sigma Aldrich); Namalwa and Ramos cells were cultured in complete growth medium (RPMI 1640 medium supplemented with 10% FBS); HCT116 and HT29 cells were cultured in complete growth medium (McCoy's 5a Medium supplemented with 10% FBS). For cellular degradation of BRD4 studies cells were seeded in a 12-well plate at 70-80% confluency, allowed to attach overnight, and incubated with the indicated compounds for the indicated time. When indicated, a 15-minute pretreatment with 10 μM pomalidomide, 10 μM VHL298, 10 μM Nutlin3a, 1 μM MG-132 or 1 μM Carfilzomib was performed before the addition of CURE-PROs. For washout studies, after CURE-PRO treatment, media was aspirated and incubated with complete medium for the indicated time before lysis.
as §1
HeLa cells (2.5×10^6) were treated for 4-24 hours with the compounds solubilized in DMSO. After 4 hours, indicated points were washed and cells were left in full growth media. Compounds were added at 10 μM each. Standardized protein samples were electrophoresed and imaged as described in the WES ProteinSimple section above. FIGS. 44 and 45 depict the time-dependence of CURE-PRO-mediated BRD4 degradation with the BRD-E52 ligand (FIG. 44) and BRD-E72 ligand (FIG. 45), both JQ1 derivatives comprising of boronic acid linkers, and the CRBN binding ligands (8046, 8047, and 8066), pomalidomide derivatives comprising diol linkers.
HeLa cells (2.5×10^6) were treated for 24 hours with the compounds solubilized in DMSO. Compounds were added at 100 nM-10 μM each. Standardized protein samples were electrophoresed and imaged as described in the WES ProteinSimple section above. FIG. 46 depicts the concentration-dependence of CURE-PRO-mediated BRD4 degradation and the requirement for monomer dimerization.

BRD4 [4] = target: T1, BRD4; assay: CURE-PRO-mediated BRD4 degradation in HeLa cells, Western blot; set-up: endogenous in cells; host or cells: HeLa; conditions: 24 h
Procedure, shortened: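 HeLa cells (2.5×10^6) treated 24 h with DMSO-solubilized compounds, degrader pairs combined 1:1, at 1 nM-1 μM, 1-10 μM, 10 μM or 10 and 100 μM each depending on series. RIPA lysates (10-20 μg protein) run on SDS-PAGE and immunoblotted for BRD4 with ECL detection.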

MV-4-11 cells = assay: CellTiter-Glo cell viability, MV-4-11 cells
Procedure: CellTiter-Glo® 2.0 Cell Viability Assay (Promega) was carried out following the manufacturer's recommendations. Cells were seeded at a density of 1000 cells/well in a white 96 well plates (Corning, #3917) in a total volume of 100 μl with respective monomers, combinations of BRD ligands together with E3 ligase ligands or vehicle control treatment. After a 72 h incubation, 100 ul of the CellTiter-Glo® substrate was added per well and luminescence was read on a Spectramax M5 (Molecular Devices). Dose-response curves were generated using Graphpad Prism software.
MV-4-11 cells (5×10^4) were treated for 24 hours with the sample compounds solubilized in DMSO. The compounds were added at 1 nM-100 μM each. Cellular viability was determined using the CellTiter-Glo® Luminescent Cell Viability Assay (Promega) described above. FIGS. 19-22 depict the CURE-PRO-mediated loss of cellular viability for BRD monomers (JQ1 derivatives comprising of catechol linkers), and CRBN ligand, 8049 (pomalidomide derivatives comprising boronic acid linkers) combined in a 1:1 ratio.
MV-4-11 cells (1×10^4) were treated for 72 hours with the compounds solubilized in DMSO. Compounds were added at 10 nM-100 μM each. Cellular viability was determined using the CellTiter-Glo® Luminescent Cell Viability Assay (Promega) described above. FIGS. 47-54 depict the CURE-PRO-mediated loss of cellular viability for BRD monomers (JQ1 derivatives comprising of boronic acid linkers), and CRBN ligands, 8046, 8047 and 8066 (pomalidomide derivatives comprising diol linkers) combined in a 1:1 ratio.

c-MYC [5] = target: T2, c-MYC (Homo sapiens, UniProt P01106); assay: Summary of C-MYC degradation by CURE-PRO pairs, estimated from Western Blot or WES; set-up: endogenous in cells; host or cells: HT29
Procedure, shortened: as §2

c-MYC [6] = target: T2, c-MYC; assay: CURE-PRO-mediated c-MYC degradation in MCF7 cells, WES (ProteinSimple); set-up: endogenous in cells
Procedure: as §1
Compounds were added at 1 μM-10 μM each. Standardized protein samples were electrophoresed and imaged as detected on a WES capillary electrophoresis instrument (Proteinsimple), as described above. c-MYC monomers, MYC-N5 (FIG. 94) and MYC-N2 (FIG. 95) (10058-F4 derivatives comprising diol linkers), and VHL ligands, 8297 and 8298 (VH-298 derivatives comprising boronic acid linkers) were combined in a 1:1 ratio.

[7] = 1:1 with VHL ligand 8297, MCF7, 24 h, 1 μM-10 μM each
[8] = 1:1 with VHL ligand 8298, MCF7, 24 h, 1 μM-10 μM each
[9] = c-MYC monomer alone, MCF7, 24 h, 1 μM-10 μM

T2 sequence (P01106 whole entry): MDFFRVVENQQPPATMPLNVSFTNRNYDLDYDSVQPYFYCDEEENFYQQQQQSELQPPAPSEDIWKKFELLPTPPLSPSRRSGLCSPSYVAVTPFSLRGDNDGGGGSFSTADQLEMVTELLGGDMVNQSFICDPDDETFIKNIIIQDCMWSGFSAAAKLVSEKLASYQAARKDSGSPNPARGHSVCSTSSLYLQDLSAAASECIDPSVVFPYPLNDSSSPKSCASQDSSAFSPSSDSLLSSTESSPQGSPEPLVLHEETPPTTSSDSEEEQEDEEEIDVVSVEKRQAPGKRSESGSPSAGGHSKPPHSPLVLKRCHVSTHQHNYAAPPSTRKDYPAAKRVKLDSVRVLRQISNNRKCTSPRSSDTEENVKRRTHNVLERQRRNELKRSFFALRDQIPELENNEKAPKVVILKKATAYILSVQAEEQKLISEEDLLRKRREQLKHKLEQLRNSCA

Structure (SMILES): COc1ccc2c(c1)C(c1ccc(Cl)cc1)=N[C@@H](CC(=O)NCCNC(=O)c1cccc(B(O)O)c1)c1nnc(C)n1-2 [BRD-E2]
- BRD4 degradation with proteasome inhibitors (BRD4 [1]; 1:1 with 8305 at 10 μM, pre-incubation with MG-132 and Carfilzomib 1 μM, MCF7): inhibited by the pre-incubation with MG-132 and Carfilzomib; also recorded: inhibited with the proteasome inhibitors, MG-132 and Carfilzomib
- BRD4 degradation (BRD4 [1]; 1:1 with VHL ligand 8305, MCF7, 10 μM each, 4-24 h): caused BRD4 degradation; also recorded: marked BRD4 degradation
- Degradation of BRD4, combination with VHL ligand 8305 (BRD4 [2]; Table 3, aryl-boronic acid BRD4 ligand + 8305): √ (A black check mark indicates efficacy of 30% to 70% or higher protein degradation)

Structure (SMILES): CCNC(=O)C[C@@H]1N=C(c2ccc(Sc3ccccc3)cc2)c2cc(OC)ccc2-n2c(C)nnc21 [BRD-E52C, N-ethyl-2-((4S)-8-methoxy-1-methyl-6-(4-(phenylthio)phenyl)-4H-benzo[f][1,2,4]triazolo[4,3-a][1,4]diazepin-4-yl)acetamide]
- concentration-dependent BRD4 degradation (BRD4 [3]): failed to induce degradation even at 10 μM

Structure (SMILES): CCNC(=O)C[C@@H]1N=C(c2ccc(Cl)cc2)c2cc(Sc3cccc(B(O)O)c3)ccc2-n2c(C)nnc21 [BRD-E76]
- BRD4 degradation (BRD4 [4]; co-treated 1:1 with CRBN ligand 8046, HeLa, 10 μM each): causes degradation of BRD4
- BRD4 degradation (BRD4 [4]; co-treated 1:1 with CRBN ligand 8047, HeLa, 10 μM each): causes degradation of BRD4
- Degradation of BRD4, combination with CRBN ligand 8046 (BRD4 [2]; Table 1, aryl-boronic acid BRD4 ligand + 8046): √ (A black check mark indicates efficacy of 30% to 70% or higher protein degradation)
- loss of cellular viability (toxicity) versus monomers alone (MV-4-11 cells; cotreated 1:1 with each of CRBN ligands 8046, 8047 and 8066, MV-4-11, 72 h, 10 nM-100 μM): reduced viability; also recorded: increased toxicity

Structure (SMILES): COc1ccc2c(c1)C(c1ccc(Cl)cc1)=N[C@@H](CC(=O)NCCc1ccc(O)c(O)c1)c1nnc(C)n1-2 [BRD-N10, (S)-2-(6-(4-chlorophenyl)-8-methoxy-1-methyl-4H-benzo[f][1,2,4]triazolo[4,3-a][1,4]diazepin-4-yl)-N-(3,4-dihydroxyphenethyl)acetamide]
- BRD4 degradation (BRD4 [4]; BRD4 monomer alone, HeLa, 1-10 μM): there is no degradation of BRD4
- BRD4 degradation (BRD4 [4]; co-treated 1:1 with CRBN ligand 8048, HeLa, 1-10 μM each): causes degradation of BRD4; also recorded: capable of degrading BRD4
- Degradation of BRD4, combination with CRBN ligand 8048 (BRD4 [2]; Table 4, aromatic 1,2-diol BRD4 ligand + 8048): √ (A black check mark indicates efficacy of 30% to 70% or higher protein degradation)
- Degradation of BRD4, combination with CRBN ligand 8049 (BRD4 [2]; Table 4, aromatic 1,2-diol BRD4 ligand + 8049): √ (A black check mark indicates efficacy of 30% to 70% or higher protein degradation)
- Degradation of BRD4, combination with MDM2 ligand 8310 (BRD4 [2]; Table 5, aromatic 1,2-diol BRD4 ligand + 8310): √ (A black check mark indicates efficacy of 30% to 70% or higher protein degradation)
- loss of cellular viability (toxicity) (MV-4-11 cells; co-dosed 1:1 with CRBN ligand 8049, MV-4-11, 24 h, 1 nM-100 μM each): concentration-dependent loss in cellular viability; also recorded: increased toxicity

Structure (SMILES): CCc1ccc(/C=C2\SC(=O)N(Cc3cccc(O)c3O)C2=O)cc1 [MYC-N2]
- Degradation of C-MYC, combination with CRBN ligand 8048 (c-MYC [5]; Table 10, aromatic 1,2-diol MYC ligand + 8048): √ (A black check mark indicates efficacy of 30% to 70% or higher protein degradation)
- c-MYC degradation (c-MYC [6]; [7]): Degradation is observed; also recorded: caused degradation of c-MYC
- c-MYC degradation (c-MYC [6]; [8]): no loss of c-MYC protein was observed
- c-MYC degradation (c-MYC [6]; [9]): no loss of c-MYC protein was observed

Structure (SMILES): CCc1ccc(/C=C2\SC(=O)N(CCCc3ccc(O)c(O)c3)C2=O)cc1 [MYC-N5]
- Degradation of C-MYC, combination with CRBN ligand 8049 (c-MYC [5]; Table 10, aromatic 1,2-diol MYC ligand + 8049): √ (A black check mark indicates efficacy of 30% to 70% or higher protein degradation)
- c-MYC degradation (c-MYC [6]; [7]): no loss of c-MYC protein was observed
- c-MYC degradation (c-MYC [6]; [8]): Degradation is observed; also recorded: caused degradation of c-MYC
- c-MYC degradation (c-MYC [6]; [9]): no loss of c-MYC protein was observed
